Measurements taken from patent US20220033434A1, “ANDROGEN RECEPTOR NUCLEIC ACIDS AND USES THEREOF” (Avidity Biosciences, Inc., priority 2016, published 2022).
In the oligonucleotide strings, read from the 5' end, every base follows the letter of its sugar. An asterisk marks phosphorothioate; unmarked linkages are phosphodiester. Other units and linkages are bracketed, terminal groups are in braces. A string of capitals states the bases alone. d = 2'-deoxy (DNA); m = 2'-O-methyl; f = 2'-fluoro

Tests used:
Type in all cases: cell-based, human
AR mRNA [1] = experiment: AR mRNA downregulation by RT-qPCR at 5 nM siRNA in 22RV1 cells; conditions: 24 hrs post-transfection
Experimental: (§1) Focusing on siRNAs targeting AR sequences exons 1 and 2, the ability of these siRNAs to downregulate AR mRNA at a concentration of 5 nM was determined by RT-qPCR. For this purpose, siRNAs were transfected into 22RV1 and LNCaP cells as described above. At 24 hrs post-transfection, RNA was harvested from cells using a Qiagen RNeasy® Plus Mini Kit or Stratec InviTrap® RNA Cell HTS96 kit. The concentration of each isolated RNA was determined via A260 measurement using a NanoDrop spectrophotometer. RNA samples were reverse transcribed to cDNA using the High Capacity RNA to cDNA Kit (Life Technologies) according to the manufacturer's instructions. cDNA samples were then quantified by qPCR using AR-specific probes and results normalized to either endogenous β-actin or PPIB using the standard 2^−ΔΔCt method. These studies identified 6 siRNAs that at a concentration of 5 nM down regulated AR mRNA in 22RV1 and LNCaP cells by more than 80% compared to controls (Table 4).

AR FL(1) = experiment: AR protein knock-down by Western blot after siRNA transfection in 22RV1 cells: AR FL(1); conditions: 5 nM siRNA, 50 h post transfection, compared to controls
Method in brief: (§2)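 5 nM siRNA (final), lipid forward transfection. 22RV1: lysed 50 h; LNCaP: lysed 72 h. RIPA lysates, 30 ug/lane PAGE, anti-AR N-term + α-tubulin blot, IR-dye quantitation.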

AR mRNA [2] = experiment: AR mRNA IC50 and maximal KD, siRNA at various concentrations, 22RV1 cells, qPCR probes exon junctions 1/2 or 4/5
Experimental: as §1
(§3) To determine the concentration required to reduce AR expression by 50% (IC50) and maximal KD activity, these siRNAs were transfected into LNCaP, C4-2, and 22RV1 cells at various concentrations starting at 100 nM. C4-2 (MD Anderson) is an LNCaP subline that has been selected for resistance against clinically used AR antagonists (Wu et al., “Derivation of androgen-independent human LNCaP prostatic cancer cell sublines: Role of bone stromal cells,” International J Cancer 1994; 57:406-412). Cells were harvested 48 h post-transfection; RNA was prepared and analyzed as stated above. For these experiments, specific AR qPCR probes located at the exon junctions 1/2 or 4/5 were used that recognize most mRNAs of relevant AR isoforms or primarily full length AR mRNA, respectively. All tested siRNAs lowered AR expression with subnanomolar potency to 70% in 22RV1 cells and to ≥90% in LNCaP and C4-2 cells (Table 5). […]

AR-SV(3) = experiment: AR protein knock-down by Western blot after siRNA transfection in 22RV1 cells: AR-SV(3); conditions: 5 nM siRNA, 50 h post transfection, compared to controls
Method in brief: as §2

AR-SV(2) = experiment: AR protein knock-down by Western blot after siRNA transfection in 22RV1 cells: AR-SV(2); conditions: 5 nM siRNA, 50 h post transfection, compared to controls
Method in brief: as §2

AR mRNA [3] = experiment: AR mRNA IC50 and maximal KD, siRNA at various concentrations, LNCaP cells, qPCR probes exon junctions 1/2 or 4/5
Experimental: as §1, §3

AR mRNA [4] = experiment: AR mRNA downregulation by RT-qPCR at 5 nM siRNA in LNCaP cells; conditions: 24 hrs post-transfection
Experimental: as §1

AR mRNA [5] = experiment: AR mRNA IC50 and maximal KD, siRNA at various concentrations, C4-2 cells, qPCR probes exon junctions 1/2 or 4/5
Experimental: as §1, §3

[6] = tested on: AR FL (full length AR T877A LBD mutant); experiment: AR protein knock-down by Western blot after siRNA transfection in LNCaP cells: AR FL; conditions: 5 nM siRNA, 72 h post transfection, compared to controls
Method in brief: as §2

[7] = tested on: AR target gene expression (PSA, PSMA); experiment: AR, PSA and PSMA levels by qRT-PCR in hormone therapy resistant 22RV1 cells, siRNA versus Enzalutamide; conditions: 5 nM siRNA (24 h + 20 h DMSO) or 10 μM Enzalutamide 20 hours
Excerpt: (§4) To monitor regulation of AR target genes as a consequence of siRNA-mediated changes in AR […], LNCaP cells were transfected with various concentrations of XD-01829 (also referred to as XD-0189), and the levels of AR and the Prostate Specific Antigen (PSA) monitored by qRT-PCR. PSA expression is positively regulated by AR and used clinically as a biomarker for AR activity in prostate cancer patients. […] A similar experiment compared the expression of AR, PSA and the Prostate-Specific Membrane Antigen (PSMA) in response to treatment with the AR antagonist Enzalutamide or AR siRNA XD-01829 (or XD-0189). PSMA expression is negatively regulated by AR. For these experiments, hormone therapy resistant 22RV1 cells were transfected with 5 nM of either a scrambled control siRNA (negative control, Enzalutamide group) or XD-01829 (or XD-0189) as described above. After incubation for 24 hours, the negative control and XD-01829 (or XD-0189) groups were treated with DMSO, and the enzalutamide group with 10 μM Enzalutamide. After incubation for 20 hours RNAs were prepared as outlined above and AR, PSA, and PSMA levels evaluated by qRT-PCR.

[8] = tested on: Prostate Specific Antigen (PSA); experiment: AR and PSA levels by qRT-PCR after siRNA transfection in LNCaP cells; conditions: various concentrations, 3 days after transfection
Excerpt: as §4

[9] = AR qPCR probe at exon junction 1/2, 48 h post-transfection
[10] = AR qPCR probe at exon junction 1/2, 48 h post-transfection, read-out: IC50 (nM), 22RV1, Exon 1/2
[11] = AR qPCR probe at exon junction 4/5, 48 h post-transfection
[12] = AR qPCR probe at exon junction 4/5, 48 h post-transfection, read-out: IC50 (nM), 22RV1, Exon 4/5
[13] = AR qPCR probe at exon junction 1/2, 48 h post-transfection, read-out: IC50 (nM), LNCaP, Exon 1/2
[14] = AR qPCR probe at exon junction 4/5, 48 h post-transfection, read-out: IC50 (nM), LNCaP, Exon 4/5
[15] = AR qPCR probe at exon junction 1/2, 48 h post-transfection, read-out: IC50 (nM), C4-2, Exon 1/2
[16] = AR qPCR probe at exon junction 4/5, 48 h post-transfection, read-out: IC50 (nM), C4-2, Exon 4/5

| Substance | % KD AR RNA 22RV1 (AR mRNA [1]) | % KD AR Protein 22RV1 AR FL(1) (AR FL(1)) | max KD (%), 22RV1, Exon 1/2 (AR mRNA [2]; [9]) | IC50 (AR mRNA [2]; [10]) | max KD (%), 22RV1, Exon 4/5 (AR mRNA [2]; [11]) | IC50 (AR mRNA [2]; [12]) | % KD AR Protein 22RV1 AR-SV(3) (AR-SV(3)) | % KD AR Protein 22RV1 AR-SV(2) (AR-SV(2)) | max KD (%), LNCaP, Exon 1/2 (AR mRNA [3]; [9]) | IC50 (AR mRNA [3]; [13]) | max KD (%), LNCaP, Exon 4/5 (AR mRNA [3]; [11]) | IC50 (AR mRNA [3]; [14]) | % KD AR RNA LNCaP (AR mRNA [4]) | max KD (%), C4-2, Exon 1/2 (AR mRNA [5]; [9]) | IC50 (AR mRNA [5]; [15]) | max KD (%), C4-2, Exon 4/5 (AR mRNA [5]; [11]) | IC50 (AR mRNA [5]; [16]) | % KD AR Protein LNCaP AR FL [6] | regulation of AR target gene expression (PSA, PSMA) [7] | AR and PSA levels [8] |
| --- | --- | --- | --- | --- | --- | --- | --- | --- | --- | --- | --- | --- | --- | --- | --- | --- | --- | --- | --- | --- |
| XD-01827: AR siRNA with chemical modification, Id # 2819; sense X05349 (SEQ ID NO: 179), antisense X05350 (SEQ ID NO: 180) (sense mUmGfGmGfUmGfUmCfAmCfUmAfUmGfGmAfGmCfUdT*dT; antisense fAfGmCfUmCfCmAfUmAfGmUfGmAfCmAfCmCfCmAdT*dT) | 89% | 89% | 38.7% | 0.108 nM | 54.0% | 0.068 nM | 93% | 92% | 81.7% | 0.053 nM | 84.5% | 0.06 nM | 86% | 83.2% | 0.052 nM | 85.7% | 0.052 nM | 90% |  |  |
| XD-01829: AR siRNA with chemical modification, Id # 2822; sense X05353 (SEQ ID NO: 183), antisense X05354 (SEQ ID NO: 184) (sense mGmUfGmUfCmAfCmUfAmUfGmGfAmGfCmUfCmUfCdT*dT; antisense fGfAmGfAmGfCmUfCmCfAmUfAmGfUmGfAmCfAmCdT*dT) | 86% | 97% | 72.1% | 0.038 nM | 68.1% | 0.018 nM | 97% | 99% | 94.2% | 0.016 nM | 92.3% | 0.016 nM | 92% | 94.7% | 0.013 nM | 92.6% | 0.011 nM | 91% | regulate AR target gene expression | highly correlated |
| XD-01828: AR siRNA with chemical modification, Id # 2820; sense X05351 (SEQ ID NO: 181), antisense X05352 (SEQ ID NO: 182) (sense mGmGfGmUfGmUfCmAfCmUfAmUfGmGfAmGfCmUfCdT*dT; antisense fGfAmGfCmUfCmCfAmUfAmGfUmGfAmCfAmCfCmCdT*dT) | 96% | 80% | 51.7% | 0.042 nM | 50.7% | 0.028 nM | 92% | 89% | 84.8% | 0.023 nM | 81.7% | 0.028 nM | 84% | 81.1% | 0.022 nM | 77.7% | 0.02 nM | 90% |  |  |
| XD-01825: AR siRNA with chemical modification, Id # 2814; sense X05345 (SEQ ID NO: 175), antisense X05346 (SEQ ID NO: 176) (sense mGmCfUmUfCmUfGmGfGmUfGmUfCmAfCmUfAmUfGdT*dT; antisense fCfAmUfAmGfUmGfAmCfAmCfCmCfAmGfAmAfGmCdT*dT) | 91% | 90% | 53.5% | 0.067 nM | 60.7% | 0.055 nM | 95% | 93% | 82.5% | 0.02 nM | 84.9% | 0.018 nM | 82% | 83.5% | 0.024 nM | 84.6% | 0.026 nM | 91% |  |  |
| XD-01826: AR siRNA with chemical modification, Id # 2817; sense X05347 (SEQ ID NO: 177), antisense X05348 (SEQ ID NO: 178) (sense mUmCfUmGfGmGfUmGfUmCfAmCfUmAfUmGfGmAfGdT*dT; antisense fCfUmCfCmAfUmAfGmUfGmAfCmAfCmCfCmAfGmAdT*dT) | 89% | 87% | 52.4% | 0.146 nM | 64.8% | 0.057 nM | 93% | 92% | 84.6% | 0.041 nM | 86.0% | 0.035 nM | 81% | 86.5% | 0.049 nM | 87.0% | 0.046 nM | 91% |  |  |
